Measurements taken from patent US20190352288A1, “MATRIX METALLOPROTEINASE (MMP) INHIBITORS AND METHODS OF USE THEREOF” (Foresee Pharmaceuticals Co., Ltd., priority 2018, published 2019).

What was measured:
Format in all cases: biochemical
recombinant human MMP-9 = recombinant human MMP-9 (Homo sapiens, UniProt P14780); assay: MMP selectivity assay, MMP-9; details: Table 2 selectivity profile
Description: (§1) The inhibitory effect of compounds on the rate of cleaving fluorogenic MMP substrate (Enzo, BML-P128) by recombinant human MMP-12 catalytic domain (Enzo, BML-SE138) was carried out by methods known in the art. Briefly, to each well of a 96-well black opaque plate, all the reagents were sequentially added by pipetting, and the final reaction contained 4 nM of recombinant human MMP-12 catalytic domain, 4 μM of fluorogenic MMP substrate, and various concentrations (0.15 nM to 10,000 nM) of tested compound dilutions in HEPES buffer (pH 7.5) containing 10 mM of CaCl2), 0.01% Brij® 35 (polyoxyethylene (23) lauryl ether), and 0.1 mg/ml of BSA.
(§2) The enzyme and compounds were pre-incubated on a shaker to mix in wells. After an hour of mixing, fluorogenic substrate was added to each well. Reaction without enzyme was used as a blank control in the plate. The plate was then fed into a plate reader to measure fluorescence intensity at Excitation/Emission wavelengths of 340 nm/440 nm every 10 mins for at least 1 hour at 37° C. The IC50 of each compound in MMP-12 inhibition was determined by using a readout obtained at time point 30 minutes.
(§3) The MMP selectivity assay was performed by using other recombinant human MMPs, including MMP-1, MMP-2, MMP-3, MMP-7, MMP-8, MMP-9, MMP-10, MMP-13, and MMP-14. The IC50 of the compounds for the other recombinant human MMPs was determined as described above in Example 1, and are shown in Table 2.

recombinant human MMP-8 = recombinant human MMP-8 (Homo sapiens, UniProt P22894); assay: MMP selectivity assay, MMP-8; details: Table 2 selectivity profile
Description: as §1, §2, §3

recombinant human MMP-1 = molecular target: T1, recombinant human MMP-1 (Homo sapiens, UniProt P03956); assay: MMP selectivity assay, MMP-1; details: Table 2 selectivity profile
T1 sequence (P03956 100-469): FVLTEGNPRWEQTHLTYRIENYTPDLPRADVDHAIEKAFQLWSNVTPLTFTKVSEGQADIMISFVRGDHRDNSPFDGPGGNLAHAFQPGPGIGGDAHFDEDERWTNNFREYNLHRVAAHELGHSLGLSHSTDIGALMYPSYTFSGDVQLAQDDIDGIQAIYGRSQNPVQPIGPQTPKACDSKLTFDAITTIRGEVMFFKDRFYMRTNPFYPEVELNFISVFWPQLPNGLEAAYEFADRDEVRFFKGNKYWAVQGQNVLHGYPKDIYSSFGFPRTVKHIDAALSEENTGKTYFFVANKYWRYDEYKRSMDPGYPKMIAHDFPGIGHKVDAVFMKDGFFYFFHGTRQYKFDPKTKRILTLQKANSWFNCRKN
Description: as §1, §2, §3

recombinant human MMP-2 = molecular target: T2, recombinant human MMP-2 (Homo sapiens, UniProt P08253); assay: MMP selectivity assay, MMP-2; details: Table 2 selectivity profile
T2 sequence (P08253 110-660): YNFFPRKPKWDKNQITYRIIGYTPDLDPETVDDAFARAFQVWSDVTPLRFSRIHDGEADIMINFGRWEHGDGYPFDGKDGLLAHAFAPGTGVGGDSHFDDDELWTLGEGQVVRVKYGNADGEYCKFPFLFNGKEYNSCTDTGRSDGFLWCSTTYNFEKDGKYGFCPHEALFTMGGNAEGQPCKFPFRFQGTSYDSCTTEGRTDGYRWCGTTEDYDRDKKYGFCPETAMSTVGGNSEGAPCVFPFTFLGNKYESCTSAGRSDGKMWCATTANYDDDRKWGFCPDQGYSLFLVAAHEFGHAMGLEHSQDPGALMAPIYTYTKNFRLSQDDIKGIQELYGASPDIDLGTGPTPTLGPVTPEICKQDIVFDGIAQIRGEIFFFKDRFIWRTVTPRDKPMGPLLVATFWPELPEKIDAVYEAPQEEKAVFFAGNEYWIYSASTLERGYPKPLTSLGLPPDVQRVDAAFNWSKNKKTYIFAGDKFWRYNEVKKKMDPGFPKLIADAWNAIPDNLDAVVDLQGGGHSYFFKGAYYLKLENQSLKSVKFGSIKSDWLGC
Description: as §1, §2, §3

recombinant human MMP-3 = recombinant human MMP-3 (Homo sapiens, UniProt P08254); assay: MMP selectivity assay, MMP-3; details: Table 2 selectivity profile
Description: as §1, §2, §3

recombinant human MMP-14 = recombinant human MMP-14 (Homo sapiens, UniProt P50281); assay: MMP selectivity assay, MMP-14; details: Table 2 selectivity profile
Description: as §1, §2, §3

recombinant human MMP-7 = molecular target: T3, recombinant human MMP-7 (Homo sapiens, UniProt P09237); assay: MMP selectivity assay, MMP-7; details: Table 2 selectivity profile
T3 sequence (P09237 95-267): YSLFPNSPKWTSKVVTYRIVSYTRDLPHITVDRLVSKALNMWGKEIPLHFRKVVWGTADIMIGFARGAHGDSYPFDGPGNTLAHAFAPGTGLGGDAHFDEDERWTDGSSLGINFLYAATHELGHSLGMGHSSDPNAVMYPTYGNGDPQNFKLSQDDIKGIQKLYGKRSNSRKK
Description: as §1, §2, §3

recombinant human MMP-13 = recombinant human MMP-13 (Homo sapiens, UniProt P45452); assay: MMP selectivity assay, MMP-13; details: Table 2 selectivity profile
Description: as §1, §2, §3

recombinant human MMP-10 = recombinant human MMP-10 (Homo sapiens, UniProt P09238); assay: MMP selectivity assay, MMP-10; details: Table 2 selectivity profile
Description: as §1, §2, §3

[1] = molecular target: T4, recombinant human MMP-12 catalytic domain (Homo sapiens, UniProt P39900); assay: MMP-12 inhibitory assay (fluorogenic substrate cleavage); details: readout at 30 minutes, 37° C., Table 1
T4 construct: recombinant human MMP-12 catalytic domain; purchased Enzo BML-SE138
Description: as §1, §2

Sequence of recombinant human MMP-3 (P08254 100-477): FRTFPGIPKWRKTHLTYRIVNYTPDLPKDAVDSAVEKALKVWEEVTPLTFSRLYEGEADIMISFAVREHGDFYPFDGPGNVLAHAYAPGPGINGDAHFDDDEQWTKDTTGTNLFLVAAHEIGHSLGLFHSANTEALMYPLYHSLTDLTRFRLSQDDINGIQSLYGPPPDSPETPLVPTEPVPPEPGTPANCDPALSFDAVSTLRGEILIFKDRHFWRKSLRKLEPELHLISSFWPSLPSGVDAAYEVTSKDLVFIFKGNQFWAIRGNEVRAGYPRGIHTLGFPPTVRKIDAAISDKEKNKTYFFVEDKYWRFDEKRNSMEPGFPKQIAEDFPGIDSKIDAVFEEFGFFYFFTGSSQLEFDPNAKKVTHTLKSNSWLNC
Sequence of recombinant human MMP-10 (P09238 99-476): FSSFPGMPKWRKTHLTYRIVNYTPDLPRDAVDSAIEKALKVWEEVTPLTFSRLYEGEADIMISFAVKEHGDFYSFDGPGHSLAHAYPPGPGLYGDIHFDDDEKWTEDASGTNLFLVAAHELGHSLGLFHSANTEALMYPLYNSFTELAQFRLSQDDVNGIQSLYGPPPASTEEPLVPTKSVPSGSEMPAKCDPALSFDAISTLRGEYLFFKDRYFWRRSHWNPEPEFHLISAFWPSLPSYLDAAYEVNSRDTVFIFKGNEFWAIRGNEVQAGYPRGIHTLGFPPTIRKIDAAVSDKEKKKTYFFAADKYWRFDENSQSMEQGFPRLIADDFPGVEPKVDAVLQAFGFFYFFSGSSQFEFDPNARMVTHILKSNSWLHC
T4 sequence (P39900 106-268 limits assumed): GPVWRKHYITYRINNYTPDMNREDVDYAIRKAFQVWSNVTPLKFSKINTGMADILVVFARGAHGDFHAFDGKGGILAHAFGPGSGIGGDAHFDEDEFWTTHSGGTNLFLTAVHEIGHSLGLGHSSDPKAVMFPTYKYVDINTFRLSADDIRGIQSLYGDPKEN
Sequence of recombinant human MMP-8 (P22894 101-467): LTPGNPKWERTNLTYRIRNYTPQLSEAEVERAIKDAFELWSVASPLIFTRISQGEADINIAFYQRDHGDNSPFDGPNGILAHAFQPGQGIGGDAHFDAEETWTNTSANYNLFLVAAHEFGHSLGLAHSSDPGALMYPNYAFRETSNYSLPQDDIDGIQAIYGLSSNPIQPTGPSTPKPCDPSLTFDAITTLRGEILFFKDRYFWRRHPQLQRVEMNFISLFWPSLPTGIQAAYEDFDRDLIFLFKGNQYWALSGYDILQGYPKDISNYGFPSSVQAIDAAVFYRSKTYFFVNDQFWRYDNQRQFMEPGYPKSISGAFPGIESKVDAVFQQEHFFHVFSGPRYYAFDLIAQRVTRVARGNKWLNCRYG
Sequence of recombinant human MMP-9 (P14780 94-707): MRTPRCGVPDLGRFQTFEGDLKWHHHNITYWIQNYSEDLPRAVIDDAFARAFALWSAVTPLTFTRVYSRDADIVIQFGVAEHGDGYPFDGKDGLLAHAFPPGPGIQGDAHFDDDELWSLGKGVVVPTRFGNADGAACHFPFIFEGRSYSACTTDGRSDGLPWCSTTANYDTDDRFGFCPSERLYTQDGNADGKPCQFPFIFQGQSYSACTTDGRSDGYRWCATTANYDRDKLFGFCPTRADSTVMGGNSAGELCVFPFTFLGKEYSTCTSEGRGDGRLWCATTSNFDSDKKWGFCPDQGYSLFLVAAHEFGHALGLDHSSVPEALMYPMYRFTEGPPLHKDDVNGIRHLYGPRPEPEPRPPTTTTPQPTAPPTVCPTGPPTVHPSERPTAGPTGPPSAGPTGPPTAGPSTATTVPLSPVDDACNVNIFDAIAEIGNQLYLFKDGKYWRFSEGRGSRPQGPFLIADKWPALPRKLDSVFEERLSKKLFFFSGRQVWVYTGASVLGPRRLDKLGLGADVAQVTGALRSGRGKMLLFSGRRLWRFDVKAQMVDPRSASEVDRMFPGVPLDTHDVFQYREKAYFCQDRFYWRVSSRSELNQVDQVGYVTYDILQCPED

SMILES	IC50 (recombinant human MMP-9) [nM]	IC50 (recombinant human MMP-8) [nM]	IC50 (recombinant human MMP-1) [nM]	IC50 (recombinant human MMP-2) [nM]	IC50 (recombinant human MMP-3) [nM]	IC50 (recombinant human MMP-14) [nM]	IC50 (recombinant human MMP-7) [nM]	IC50 (recombinant human MMP-13) [nM]	IC50 (recombinant human MMP-10) [nM]	IC50 [1] [nM]
Cc1cc(COc2ccc(Sc3ncoc3C3NC(=O)NC3=O)cc2)ccn1 (stereo not shown) [OC-7]	1000 to 10000	100 to 1000	> 10000	100 to 1000	1000 to 10000	> 10000	> 10000	100 to 1000	1000 to 10000	
Cc1cc(COc2ccc(Sc3cnn(C)c3C3NC(=O)NC3=O)cc2)ccn1 (stereo not shown) [OC-12]	1000 to 10000	100 to 1000	> 10000	100 to 1000	1000 to 10000	1000 to 10000	> 10000	100 to 1000	1000 to 10000	
Cc1cc(COc2ccc(Sc3ncn(C)c3C3NC(=O)NC3=O)cc2)ccn1 (stereo not shown) [OC-13]	1000 to 10000	100 to 1000	> 10000	100 to 1000	1000 to 10000	100 to 1000	> 10000	100 to 1000	1000 to 10000	
O=C1NC(=O)C(c2cnccc2Sc2ccc(OCc3cccc(CO)c3)cc2)N1 (stereo not shown) [PC-8]	> 10000	> 10000	> 10000	1000 to 10000	1000 to 10000	> 10000	> 10000	1000 to 10000	> 10000	
O=C1NC(=O)C(c2cnccc2Sc2ccc(OCc3cccc(O)c3)cc2)N1 (stereo not shown) [PC-10]	1000 to 10000	1000 to 10000	> 10000	1000 to 10000	1000 to 10000	> 10000	> 10000	1000 to 10000	> 10000	
O=C1NC(=O)C(c2ccncc2Sc2ccc(OCc3ccccc3CO)cc2)N1 (stereo not shown) [PC-12]	1000 to 10000	1000 to 10000	> 10000	1000 to 10000	100 to 1000	> 10000	> 10000	> 10000	1000 to 10000	
O=C1NC(=O)C(c2ccncc2Sc2ccc(OCc3cccc(CO)c3)cc2)N1 (stereo not shown) [PC-13]	1000 to 10000	1000 to 10000	> 10000	1000 to 10000	100 to 1000	> 10000	> 10000	1000 to 10000	1000 to 10000	
CCC1(c2cnccc2Sc2ccc(OCc3cccc(C)c3)cc2)NC(=O)NC1=O (stereo not shown) [PC-22]	1000 to 10000	1000 to 10000	> 10000	1000 to 10000	100 to 1000	1000 to 10000	> 10000	100 to 1000	1000 to 10000	
NC(=O)c1cccc(COc2ccc(Sc3ccncc3C3NC(=O)NC3=O)cc2)c1 (stereo not shown) [PC-28]	1000 to 10000	100 to 1000	> 10000	1000 to 10000	1000 to 10000	1000 to 10000	> 10000	100 to 1000	1000 to 10000	
O=C1NC(=O)C(c2cnccc2Sc2ccc(OCc3cncc(CO)c3)cc2)N1 (stereo not shown) [PC-39]										100 to 1000
Cc1cc(COc2ccc(Sc3ccncc3C3NC(=O)N(C)C3=O)cc2)ccn1 (stereo not shown) [PC-41]										100 to 1000
Cc1cc(COc2ccc(Sc3ccncc3C3NC(=O)NC3=O)c(C)c2)ccn1 (stereo not shown) [PC-42]										10 to 100
Cc1cc(OCc2ccc(Sc3ccncc3C3NC(=O)NC3=O)cc2)ccn1 (stereo not shown) [PC-44]										10 to 100
Cc1cc(COc2ccc(Sc3cc(C)ncc3C3NC(=O)NC3=O)cc2)ccn1 (stereo not shown) [PC-45]										10 to 100
Cc1cc(COc2ccc(Sc3ccncc3C3NC(=O)NC3=O)cc2C)ccn1 (stereo not shown) [PC-48]	1000 to 10000	1000 to 10000	> 10000	1000 to 10000	1000 to 10000	> 10000	> 10000	100 to 1000	1000 to 10000	
Cc1cc(COc2ccc(Sc3ccncc3C3NC(=O)NC3=O)cc2Cl)ccn1 (stereo not shown) [PC-49]										10 to 100
Cc1cc(COc2ccc(Sc3ccncc3C3NC(=O)NC3=O)cc2F)ccn1 (stereo not shown) [PC-52]										10 to 100
O=C1NC(=O)C(c2ccncc2Sc2ccc(OCc3ccnc(CO)c3)cc2)N1 (stereo not shown) [PC-53]										10 to 100
COc1ccc(CN2C(=O)NC(c3cnccc3Sc3ccc(OCc4ccnc(C)c4)cc3)C2=O)cc1 (stereo not shown) [PC-55]										100 to 1000
Cc1cc(CNc2ccc(Sc3ccncc3C3NC(=O)NC3=O)cc2)ccn1 (stereo not shown) [PC-56]										10 to 100
Cc1cc(CCc2ccc(Sc3ccncc3C3NC(=O)NC3=O)cc2)ccn1 (stereo not shown) [PC-57]										10 to 100
Cc1cc(CN(C)c2ccc(Sc3ccncc3C3NC(=O)NC3=O)cc2)ccn1 (stereo not shown) [PC-58]										10 to 100
NC(=O)c1cc(COc2ccc(Sc3ccncc3C3NC(=O)NC3=O)cc2)ccn1 (stereo not shown) [PC-59]										100 to 1000
NC(=O)c1cc(COc2ccc(Sc3ccncc3C3NC(=O)NC3=O)cc2)ccn1 (stereo not shown) [PC-60]										10 to 100
Cc1cc(COc2ccc(Sc3ccncc3C3NC(=O)NC3=O)cn2)ccn1 (stereo not shown) [PC-61]										100 to 1000
Cc1cc(CCc2ccc(Oc3ccncc3C3NC(=O)NC3=O)cc2)ccn1 (stereo not shown) [PC-62]										100 to 1000
CCCOc1cccc(COc2ccc(Sc3ccsc3C3NC(=O)NC3=O)cc2)c1 (stereo not shown) [TC1]										100 to 1000
CCOc1cccc(COc2ccc(Sc3ccsc3C3NC(=O)NC3=O)cc2)c1 (stereo not shown) [TC2]										100 to 1000
CC(C)Oc1cccc(COc2ccc(Sc3ccsc3C3NC(=O)NC3=O)cc2)c1 (stereo not shown) [TC3]										100 to 1000
